This note sets out measurements from ChEMBL document CHEMBL5608184, “Discovery and mechanistic insights into thieno[3,2-d]pyrimidine and heterocyclic fused pyrimidines inhibitors targeting tubulin for cancer therapy” (Eur J Med Chem, 2024).

Assay [1] deals with A2780. The assay can be described thus: Antiproliferative activity against human A2780 cells incubated for 48 hrs by CCK8 assay. It counts as functional, cell-based. The conditions noted are these: A2780, 48 h. Background: Formazan colour is commonly taken as a measure of viable cells.
Assay [2] relates to SK-OV-3. The assay can be described thus: Antiproliferative activity against human SK-OV-3 cells incubated for 48 hrs by CCK8 assay. It counts as functional, cell-based. The conditions noted are these: SK-OV-3, 48 h.
For assay [3], the system named is HCC827. The assay can be described thus: Antiproliferative activity against human HCC827 cells incubated for 48 hrs by CCK8 assay. The format is functional, cell-based. The conditions noted are these: HCC827, 48 h.
The test system of assay [4] is A549. The assay can be described thus: cells. The conditions noted are these: Homo sapiens, A549, 48 h.
Description: Antiproliferative activity against human A549 cells incubated for 48 hrs by CCK8 assay
For assay [5], the target named is Tubulin. Nature of the assay: Binding affinity to CM5-chip immobilized tubulin (unknown origin) assessed as dissociation constant by SPR analysis. The format is protein-complex assay, Homo sapiens. Background: SPR reads the build-up and loss of mass on a sensor chip optically.
A short description of assay [6]: Antiproliferative activity against Paclitaxel-resistant human A2780 cells incubated for 48 hrs by CCK8 assay. The format is functional, cell-based. The conditions noted are these: Paclitaxel-resistant A2780, 48 h.
Assay [7] concerns SK-OV-3. Nature of the assay: Induction of cell cycle arrest at G2/M phase in human SK-OV-3 cells at 5 nM incubated for 24 hrs by PI staining based flow cytometry (reference value: 29.73 %). The format is functional. A general note: A flow cytometer gives signals particle by particle.
Assay [8] has as its system SK-OV-3. Nature of the assay: Induction of cell cycle arrest at G2/M phase in human SK-OV-3 cells at 5 nM incubated for 24 hrs by PI staining based flow cytometry (reference value: 30.13 %). The format is functional.
For assay [9], the system named is SK-OV-3. The assay can be described thus: Induction of apoptosis in human SK-OV-3 cells assessed as viable cells at 5 nM incubated for 48 hrs by Annexin V-APC-A/7-AAD-A staining based flow cytometry (reference value: 97.17 %). The format is functional. The conditions noted are these: read-out: Activity.
For assay [10], the system named is SK-OV-3. Nature of the assay: Induction of apoptosis in human SK-OV-3 cells assessed as early apoptotic cells at 5 nM incubated for 48 hrs by Annexin V-APC-A/7-AAD-A staining based flow cytometry (reference value: 1.12 %). It counts as functional.
For assay [11], the system named is SK-OV-3. Nature of the assay: Induction of apoptosis in human SK-OV-3 cells assessed as late apoptotic cells at 5 nM incubated for 48 hrs by Annexin V-APC-A/7-AAD-A staining based flow cytometry (reference value: 1.22 %). The format is functional.
In assay [12] the test system is SK-OV-3. Nature of the assay: Induction of apoptosis in human SK-OV-3 cells assessed as necrotic cells at 5 nM incubated for 48 hrs by Annexin V-APC-A/7-AAD-A staining based flow cytometry (reference value: 0.48 %). The format is functional.
The test system of assay [13] is SK-OV-3. Nature of the assay: Induction of apoptosis in human SK-OV-3 cells assessed as viable cells at 5 nM incubated for 48 hrs by Annexin V-APC-A/7-AAD-A staining based flow cytometry (reference value: 97.50 %). It counts as functional. The conditions noted are these: read-out: Activity.
Assay [14] has as its system SK-OV-3. The assay can be described thus: Induction of apoptosis in human SK-OV-3 cells assessed as early apoptotic cells at 5 nM incubated for 48 hrs by Annexin V-APC-A/7-AAD-A staining based flow cytometry (reference value: 1.10 %). It counts as functional.
The test system of assay [15] is SK-OV-3. The assay can be described thus: Induction of apoptosis in human SK-OV-3 cells assessed as late apoptotic cells at 5 nM incubated for 48 hrs by Annexin V-APC-A/7-AAD-A staining based flow cytometry (reference value: 1.20 %). It counts as functional.
Assay [16] relates to SK-OV-3. Nature of the assay: Induction of apoptosis in human SK-OV-3 cells assessed as necrotic cells at 5 nM incubated for 48 hrs by Annexin V-APC-A/7-AAD-A staining based flow cytometry (reference value: 0.21 %). The format is functional.

pIC50, pKd: −log10 of the molar value.

A word on the pIC50: it is −log10 of the IC50, conventionally taken in molar units. Read a low pIC50 as a large IC50. On to `COc1cc(OC)cc(N(C)c2nc(Cl)nc3ccsc23)c1`, for which the negative-log IC50 (pIC50) is 6.19 in assay [1], 6.58 in assay [2], 6.37 in assay [3] and 6.10 in assay [4].

What is called pKd is −log10 of the Kd, conventionally taken in molar units. For `COc1ccc(N(C)c2nc(Cl)nc3ccsc23)cc1`, in [5], the negative logarithm of the Kd (pKd) is 4.53. Also, the negative-log IC50 (pIC50) in [1] was 8.14; in assay [2], 8.23; in [3], 8.07; in assay [4], 8.06.

Regarding `COc1ccc(N(C)c2nc(Cl)nc3ccoc23)cc1`, the pIC50 in [1] is 8.20; in [2], 8.54; in assay [3] it was 8.33; in [4], 8.04.

As to `CCNc1nc(N(C)c2ccc(OC)cc2)c2sccc2n1`, the pIC50 in [1] is 7.29; in [2] it was 7.28; in assay [3] it was 7.50; in assay [4], 6.80.

Turning to `COc1ccc2c(c1)CCCN2c1nc(Cl)nc2ccsc12`, the pIC50 in assay [1] was 8.33; in assay [2] it was 8.57; in assay [3] it was 8.65; in assay [4], 8.29.

For `CN(c1ccc(OC(F)(F)F)cc1)c1nc(Cl)nc2ccsc12`, the pIC50 was 6.41 in assay [1], 6.99 in assay [2], 6.46 in assay [3] and 6.22 in assay [4].

On to `COc1ccc(Oc2nc(Cl)nc3ccsc23)cc1`, for which the pIC50 in assay [1], in assay [2], in assay [3] and in [4] was less than 6.00 throughout.

As to `COc1ccc(N(C)c2nc(NC3CCCC3)nc3ccsc23)cc1`, the pIC50 was less than 6.00 in assay [1], 6.13 in assay [2], less than 6.00 in [3] and less than 6.00 in [4].

Regarding `COc1ccc(N(C)c2nc(Cl)nc3[nH]ccc23)cc1`, the pIC50 in assay [1] was 6.65; in [2] it was 7.41; in [3], 6.65; in assay [4], 6.23.

Consider `COc1ccc(N(C)c2ncnc3ccsc23)cc1`, for which the negative logarithm of the IC50 (pIC50) in assay [1] was 7.11; in assay [2], 7.35; in assay [3], 7.31; in [4], 7.06.

In the case of `COc1ccc(N(C)c2nc(Cl)nc3sccc23)cc1`, the negative-log IC50 (pIC50) was 8.26 in [1], 8.31 in assay [2], 8.29 in [3] and 8.20 in assay [4].

As for `COc1ccc(N(C)c2nc(N3CCC3)nc3ccsc23)cc1`, the negative-log IC50 (pIC50) in assay [1] is 6.51; in assay [2], 7.23; in assay [3], 6.64; in [4] it was 6.16.

For the molecule `Cc1nn(C)c2ccc(N(C)c3nc(Cl)nc4ccsc34)cc12`, the pIC50 in assay [1] is 7.55; in assay [2] it was 7.85; in assay [3] it was 7.70; in [4], 7.56.

Take `COc1cc2c(c(OC)c1OC)-c1ccc(OC)c(=O)cc1[C@@H](NC(C)=O)CC2` [COLCHICINE]: the pIC50 in assay [1] was 7.91; in assay [2], 7.99; in [3], 8.03; in [6], 6.30. Moreover, the Activity in assay [7] is recorded as 34.38%; in assay [8], 34.8%; in [10], 1.47%; in assay [11] it was 2.01%; in assay [12], 0.28%; in assay [14] it was 2.15%. In addition, the values for the Activity in assay [15] and in assay [16] were 1.53% and 0.38%, respectively. Also, the values for the viability at 0.005 µM in assay [9] and in [13] were 96.2% and 95.9%, respectively.

With `CN(c1ccccc1)c1nc(Cl)nc2ccsc12`, the negative logarithm of the IC50 (pIC50) in assay [1], in assay [2], in [3] and in assay [4] was less than 6.00 each time.

Regarding `COc1ccc(N(C)c2nc(N3CCN(C)CC3)nc3ccsc23)cc1`, the pIC50 in assay [1], in assay [2], in assay [3] and in assay [4] was less than 6.00 throughout.

For the molecule `COc1ccc(N(C)c2nc(NC3CC3)nc3ccsc23)cc1`, the pIC50 in assay [1] is 7.52; in assay [2] it was 7.60; in assay [3] it was 7.70; in assay [4], 7.14.

`COc1ccc(N(C)c2nc(C)nc3ccsc23)cc1`: the negative logarithm of the IC50 (pIC50) in assay [1] was 7.80; in assay [2], 8.21; in [3], 8.04; in [4] it was 7.83.

With `COc1ccc(N(C)c2nc(NC3CCC3)nc3ccsc23)cc1`, the pIC50 in assay [1] is 6.92; in assay [2] it was 7.04; in assay [3], 6.95; in assay [4], 6.68.

For `COc1ccc(N(C)c2nc(Cl)nc3c2ccn3C)cc1`, the negative-log IC50 (pIC50) in assay [1] was 7.13; in [2], 7.63; in assay [3] it was 7.27; in assay [4] it was 6.92.

On to `COc1ccc(N(C)c2nc(Cl)nc3cc[nH]c23)cc1`, for which the negative logarithm of the IC50 (pIC50) in [1] is 7.64; in [2], 8.04; in [3], 7.73; in assay [4], 7.69.

As for `COc1ccc(N(C)c2nc(Cl)nc3ccccc23)cc1`, the negative-log IC50 (pIC50) in [1] was 8.96; in assay [2], 9.11; in [3], 8.90; in [4], 8.89.

For the molecule `COc1ccc(Nc2nc(Cl)nc3ccsc23)cc1`, the negative-log IC50 (pIC50) in assay [1], in assay [2], in assay [3] and in assay [4] was less than 6.00 in each case.

With `CN(c1ccc2c(ccn2C)c1)c1nc(Cl)nc2ccsc12`, the negative logarithm of the IC50 (pIC50) in assay [1] was 8.81; in assay [2], 8.91; in [3] it was 8.81; in assay [4] it was 8.76.

Take `COc1ccc(N(C)c2nc(Cl)nc3ccsc23)cc1F`: the negative logarithm of the IC50 (pIC50) is 8.50 in assay [1], 8.69 in assay [2], 8.78 in assay [3] and 8.59 in assay [4].

For `COc1ccc(N(C)c2nc(N3CCCC3)nc3ccsc23)cc1`, the pIC50 in assay [1], in assay [2], in assay [3] and in [4] was less than 6.00 each time.

In the case of `CN(c1ccc(C(F)F)cc1)c1nc(Cl)nc2ccsc12`, the negative-log IC50 (pIC50) in [1], in assay [2], in assay [3] and in [4] was less than 6.00 throughout.

Regarding `COc1ccc(/C=C\c2cc(OC)c(OC)c(OC)c2)cc1O` [COMBRETASTATIN A4], the negative-log IC50 (pIC50) in [1] is 8.67; in assay [2], 8.85; in assay [3], 8.65; in assay [4] it was 8.59.

Turning to `COc1ccc(N(C)c2nc(N)nc3ccsc23)cc1`, the pIC50 in [1] is 7.21; in assay [2] it was 7.46; in [3], 7.68; in [4] it was 6.68.

In the case of `COc1ccc(Sc2nc(Cl)nc3ccsc23)cc1`, the negative-log IC50 (pIC50) is 7.51 in assay [1], 7.42 in assay [2], 7.53 in assay [3] and 7.11 in assay [4].

`COc1ccc(N(C)c2nc(N(C)C)nc3ccsc23)cc1`: the negative logarithm of the IC50 (pIC50) in [1] is 6.65; in assay [2], 7.29; in assay [3], 6.89; in assay [4], 6.54.

Consider `COc1cccc(N(C)c2nc(Cl)nc3ccsc23)c1`, for which the pIC50 in [1] was 6.65; in assay [2], 7.33; in assay [3], 6.85; in assay [4] it was 6.41.

`CN(c1ccc(F)cc1)c1nc(Cl)nc2ccsc12`: the negative-log IC50 (pIC50) in [1], in [2], in [3] and in assay [4] was less than 6.00 each time.

For the molecule `COc1cc(N(C)c2nc(Cl)nc3ccsc23)cc(OC)c1OC`, the negative-log IC50 (pIC50) in assay [1], in assay [2], in [3] and in assay [4] was less than 6.00 in each case.

As for `CN(c1ccc(C(F)(F)F)cc1)c1nc(Cl)nc2ccsc12`, the negative logarithm of the IC50 (pIC50) in [1], in [2], in assay [3] and in [4] was less than 6.00 throughout.

As to `CN(c1ccc2c(c1)OCO2)c1nc(Cl)nc2ccsc12`, the pIC50 in assay [1] was 6.39; in assay [2] it was 6.77; in [3] it was 6.51; in assay [4], 6.20.

For the molecule `COc1c(F)cc(N(C)c2nc(Cl)nc3ccsc23)cc1F`, the pIC50 in assay [1] was 6.92; in assay [2], 7.50; in [3] it was 7.28; in assay [4] it was 6.62.

As to `COc1ccc2c(c1)CCN2c1nc(Cl)nc2ccsc12`, the pIC50 in [1], in assay [2], in assay [3] and in assay [4] was less than 6.00 each time.

`COc1ccc(N(C)c2nc(NC3CCCCC3)nc3ccsc23)cc1`: the pIC50 in assay [1], in assay [2], in [3] and in [4] was less than 6.00 each time.
